In article PMC12173503, “Enterohaemorrhagic Escherichia coli AdhE spirosome length correlates with enzymatic directionality and is perturbed by salicylidene acylhydrazides” (Open Biology, 2025):

Assays:
AdhE (6-His-AdhE) [1] = molecular target: T1, AdhE (6-His-AdhE) (Escherichia coli, UniProt P0A9Q7); experiment: NADH consumption at […] nm; format: biochemical; set-up: full-length AdhE, N-terminal 6-His tag kept, pET28a, expressed in E. coli BL21(DE3); spirosome oligomers, SEC fractions F12 (long) and F24 (short); conditions: forward reaction; 200 μM acetyl-CoA, 250 μM NADH, 20 μM FeSO4, 250 mM NaCl, 50 mM Tris-HCl pH 8.0, 37 °C
T1 sequence (P0A9Q7 whole entry): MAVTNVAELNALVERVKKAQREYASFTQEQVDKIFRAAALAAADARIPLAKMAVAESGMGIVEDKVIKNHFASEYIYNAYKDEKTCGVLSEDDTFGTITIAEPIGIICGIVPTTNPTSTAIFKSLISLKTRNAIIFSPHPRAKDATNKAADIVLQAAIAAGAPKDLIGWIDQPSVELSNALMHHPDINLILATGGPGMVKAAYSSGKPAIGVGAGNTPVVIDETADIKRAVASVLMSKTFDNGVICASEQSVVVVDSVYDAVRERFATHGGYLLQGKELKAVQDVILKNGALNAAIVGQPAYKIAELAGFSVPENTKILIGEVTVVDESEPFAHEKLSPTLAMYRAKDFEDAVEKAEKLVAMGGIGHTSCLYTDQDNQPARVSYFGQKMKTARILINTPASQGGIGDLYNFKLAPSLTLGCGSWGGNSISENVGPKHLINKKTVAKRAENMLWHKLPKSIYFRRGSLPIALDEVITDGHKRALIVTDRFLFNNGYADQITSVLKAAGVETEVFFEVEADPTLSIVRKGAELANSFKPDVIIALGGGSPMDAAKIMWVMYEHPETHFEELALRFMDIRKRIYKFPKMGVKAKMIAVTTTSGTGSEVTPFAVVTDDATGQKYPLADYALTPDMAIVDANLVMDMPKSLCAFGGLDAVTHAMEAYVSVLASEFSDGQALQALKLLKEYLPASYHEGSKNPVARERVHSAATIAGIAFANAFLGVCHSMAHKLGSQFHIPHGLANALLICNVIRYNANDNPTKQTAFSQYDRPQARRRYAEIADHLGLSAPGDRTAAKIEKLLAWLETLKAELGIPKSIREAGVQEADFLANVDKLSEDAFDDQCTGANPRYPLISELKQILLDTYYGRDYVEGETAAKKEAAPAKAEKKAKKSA

AdhE (6-His-AdhE) [2] = molecular target: T1, AdhE (6-His-AdhE); conditions: reverse reaction; 200 mM ethanol, 500 μM NAD+, 200 μM CoASH, 20 μM FeSO4, 250 mM NaCl, 50 mM Tris-HCl pH 8.0, 37 °C

Row | SMILES | NADH consumption at 340 nm (AdhE (6-His-AdhE) [1]) | NADH production at 340 nm (AdhE (6-His-AdhE) [2])
1 | CC(=O)SCCNC(=O)CCNC(=O)[C@H](O)C(C)(C)COP(=O)(O)OP(=O)(O)OC[C@H]1O[C@@H](n2cnc3c(N)ncnc32)[C@H](O)[C@@H]1OP(=O)(O)O [acetyl-CoA] | F12 or F24 was incubated with acetyl-CoA in the presence of NADH | 
2 | CCO [ethanol] |  | F12 or F24 was incubated with ethanol, NAD^+ and CoASH
